Results: US20230348369A1 (Cytokinetics, Inc., priority 2020, published 2023)
pEC50: −log10 of the molar value. Like-named read-outs stand apart in the source and are kept apart here.

Biological target: human NAMPT (Homo sapiens, UniProt P43490)
Assay: Human recombinant enzyme assay (NMN fluorescence biochemical assay, activation of NAMPT)
Procedure: Compounds described herein were assayed for their ability to stimulate the synthesis of nicotinamide mononucleotide (NMN) by the enzyme NAMPT. The human recombinant enzyme assay measures the activation of the enzyme activity by compounds using recombinant enzyme and substrates in a buffered cell-free system. The assay conditions closely mimic cellular environments. Dose responses were measured using an assay to detect the formation of nicotinamide mono-nucleotide. All experiments were performed in the 384-well format. […] Enzyme reactions were initiated with the addition of 10 μL of a solution containing the substrates. The final assay conditions were as follows: 6 nM human NAMPT, 2.5 mM ATP, 20 μM PRPP and 150 μM nicotinamide in 50 mM HEPES, pH 7.2, 1 mM DTT, 1 mM CHAPS 50 mM NaCl, 100 mM MgCl2. Following an incubation of 60 min at ambient temperature, 10 μL of 20% acetophenone in DMSO was added, followed by 10 μL of 2 M KOH and 40 μL of formic acid. The plates were read for fluorescence (Excitation/Emission=355 nm/460 nm) using an EnVision plate reader after 40 mins of incubation at ambient temperature.

[1] = Table A, human recombinant NAMPT, NMN formation, 60 min
[2] = Table A, human recombinant NAMPT, NMN formation, 60 min, read-out: EC50 Human

human NAMPT, sequence (P43490 whole entry): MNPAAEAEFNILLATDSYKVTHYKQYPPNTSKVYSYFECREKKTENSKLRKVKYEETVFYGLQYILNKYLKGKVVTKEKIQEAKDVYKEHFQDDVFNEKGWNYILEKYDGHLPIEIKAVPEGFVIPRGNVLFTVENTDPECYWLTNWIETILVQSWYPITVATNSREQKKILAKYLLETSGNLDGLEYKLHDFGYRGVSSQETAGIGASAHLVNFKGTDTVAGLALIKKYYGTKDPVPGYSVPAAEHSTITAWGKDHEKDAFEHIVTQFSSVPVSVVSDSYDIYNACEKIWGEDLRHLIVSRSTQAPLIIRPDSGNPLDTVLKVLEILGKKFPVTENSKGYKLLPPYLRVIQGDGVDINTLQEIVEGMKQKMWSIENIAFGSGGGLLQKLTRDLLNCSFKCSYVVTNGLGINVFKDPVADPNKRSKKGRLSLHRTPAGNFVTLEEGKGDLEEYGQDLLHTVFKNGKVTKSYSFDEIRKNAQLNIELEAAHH

| Structure (SMILES) | AC1.4 Human [1] | pEC50 [2] | pEC50 |
| --- | --- | --- | --- |
| COc1ccc(CNC(=O)NC2CC3(C2)CN(C(=O)Cc2ccccc2C)C3)cc1 [Compound 42, 1-(4-methoxybenzyl)-3-(2-(2-(o-tolyl)acetyl)-2-azaspiro[3.3]heptan-6-yl)urea] | 10.7 µM | 4.37 |  |
| COc1ccc(CNC(=O)NC2CC3(C2)CC(C(=O)NC2(c4ccccc4)CC2)C3)cc1 (stereo not drawn) [Compound 43, 6-(3-(4-methoxybenzyl)ureido)-N-(1-phenylcyclopropyl)spiro[3.3]heptane-2-carboxamide] | 4.9 µM | 4.33 |  |
| COc1ccc(CNC(=O)NC2CC3(C2)CC(C(=O)N2CCCC2c2ccccc2)C3)cc1 (stereo not drawn) [Compound 44, 1-(4-methoxybenzyl)-3-(6-(2-phenylpyrrolidine-1-carbonyl)spiro[3.3]heptan-2-yl)urea] | 10.1 µM | 4.44 |  |
| COc1ccc(CNC(=O)NC2CC3(C2)CC(C(=O)N[C@H](C)c2ccccc2)C3)cc1 (stereo partly drawn) [Compound 45, (R)-6-(3-(4-methoxybenzyl)ureido)-N-(1-phenylethyl)spiro[3.3]heptane-2-carboxamide] | 6.6 µM |  | 4.29 |
| COc1ccc(CNC(=O)NC2CC3(C2)CC(C(=O)N[C@H](CO)c2ccccc2)C3)cc1 (stereo partly drawn) [Compound 46, (S)-N-(2-hydroxy-1-phenylethyl)-6-(3-(4-methoxybenzyl)ureido)spiro[3.3]heptane-2-carboxamide] | 6.8 µM | 4.38 |  |
| COc1ccc(CNC(=O)NC2CC3(C2)CC(C(=O)N[C@@H](C)c2ccccc2)C3)cc1 (stereo partly drawn) [Compound 47, (S)-6-(3-(4-methoxybenzyl)ureido)-N-(1-phenylethyl)spiro[3.3]heptane-2-carboxamide] | 6.5 µM |  | 4.39 |
| COc1ccc(CNC(=O)NC2CC3(C2)CC(C(=O)N2CCC2c2ccccc2)C3)cc1 (stereo not drawn) [Compound 48, 1-(4-methoxybenzyl)-3-(6-(2-phenylazetidine-1-carbonyl)spiro[3.3]heptan-2-yl)urea] | 4.7 µM | 4.28 |  |
| COc1ccc(CNC(=O)NC2CC3(C2)CC(C(=O)NCc2cccnc2)C3)cc1 (stereo not drawn) [Compound 49, 6-(3-(4-methoxybenzyl)ureido)-N-(pyridin-3-ylmethyl)spiro[3.3]heptane-2-carboxamide] | 6.6 µM | 4.33 |  |
| COc1ccc(CNC(=O)NC2CC3(C2)CC(C(=O)NCc2ccncc2)C3)cc1 (stereo not drawn) [Compound 50, 6-(3-(4-methoxybenzyl)ureido)-N-(pyridin-4-ylmethyl)spiro[3.3]heptane-2-carboxamide] | 17.9 µM | 4.48 |  |
| COc1ccc(CNC(=O)NC2CC3(C2)CC(C(=O)N(C)Cc2ccccc2)C3)cc1 (stereo not drawn) [Compound 51, N-benzyl-6-(3-(4-methoxybenzyl)ureido)-N-methylspiro[3.3]heptane-2-carboxamide] | 1.5 µM | 4.27 |  |
| COc1ccc(CNC(=O)NC2CC3(CC(CN4CCCC4c4ccccc4)C3)C2)cc1 (stereo not drawn) [Compound 52, 1-(4-methoxybenzyl)-3-(6-((2-phenylpyrrolidin-1-yl)methyl)spiro[3.3]heptan-2-yl)urea] | 4.2 µM | 4.36 |  |
| COc1ccc(CNC(=O)NC2CC3(C2)CC(C(=O)N(C)[C@H](C)c2ccccc2F)C3)cc1 (stereo partly drawn) [Compound 53, (R)-N-(1-(2-fluorophenyl)ethyl)-6-(3-(4-methoxybenzyl)ureido)-N-methylspiro[3.3]heptane-2-carboxamide] | 0.3 µM | 5.07 |  |
| COc1ccc(CNC(=O)NC2CC3(C2)CC(C(=O)NCC(C)(C)c2ccccc2C)C3)cc1 (stereo not drawn) [Compound 54, 6-(3-(4-methoxybenzyl)ureido)-N-(2-methyl-2-(o-tolyl)propyl)spiro[3.3]heptane-2-carboxamide] | 1.4 µM | 4.53 |  |
| COc1ccc(CNC(=O)NC2CC3(C2)CC(C(=O)NCC(C)(C)c2ccccc2F)C3)cc1 (stereo not drawn) [Compound 55, N-(2-(2-fluorophenyl)-2-methylpropyl)-6-(3-(4-methoxybenzyl)ureido)spiro[3.3]heptane-2-carboxamide] | 1.1 µM | 4.39 |  |
| COc1ccc(CNC(=O)NC2CC3(C2)CC(C(=O)NCc2ccccn2)C3)cc1 (stereo not drawn) [Compound 56, 6-(3-(4-methoxybenzyl)ureido)-N-(pyridin-2-ylmethyl)spiro[3.3]heptane-2-carboxamide] | 9.0 µM | 4.32 |  |
| COc1ccc(CNC(=O)NC2CC3(C2)CC(C(=O)N2CCC(c4ccccc4)C2)C3)cc1 (stereo not drawn) [Compound 57, 1-(4-methoxybenzyl)-3-(6-(3-phenylpyrrolidine-1-carbonyl)spiro[3.3]heptan-2-yl)urea] | 1.0 µM | 4.59 |  |
| COc1ccc(CNC(=O)NC2CC3(C2)CC(C(=O)N2CCCC2c2ccncc2)C3)cc1 (stereo not drawn) [Compound 58, 1-(4-methoxybenzyl)-3-(6-(2-(pyridin-4-yl)pyrrolidine-1-carbonyl)spiro[3.3]heptan-2-yl)urea] | 11.3 µM | 4.40 |  |
| COc1ccc(CNC(=O)NC2CC3(C2)CC(C(=O)N2CCC[C@@H]2c2cccnc2)C3)cc1 (stereo partly drawn) [Compound 59, (R)-1-(4-methoxybenzyl)-3-(6-(2-(pyridin-3-yl)pyrrolidine-1-carbonyl)spiro[3.3]heptan-2-yl)urea] | 11.2 µM | 4.39 |  |
| COc1ccc(CNC(=O)NC2CC3(C2)CC(C(=O)N(C)[C@@H](C)c2ccccc2F)C3)cc1 (stereo partly drawn) [Compound 60, (S)-N-(1-(2-fluorophenyl)ethyl)-6-(3-(4-methoxybenzyl)ureido)-N-methylspiro[3.3]heptane-2-carboxamide] | 0.3 µM | 5.21 |  |
| COc1ccc(CNC(=O)NC2CC3(C2)CC(C(=O)N2CC(c4ccccc4)C2)C3)cc1 (stereo not drawn) [Compound 61, 1-(4-methoxybenzyl)-3-(6-(3-phenylazetidine-1-carbonyl)spiro[3.3]heptan-2-yl)urea] | 2.5 µM | 4.46 |  |
| COc1ccc(CNC(=O)NC2CC3(C2)CC(C(=O)N2CCN(C(=O)c4ccccc4)CC2)C3)cc1 (stereo not drawn) [Compound 62, 1-(6-(4-benzoylpiperazine-1-carbonyl)spiro[3.3]heptan-2-yl)-3-(4-methoxybenzyl)urea] | 1.2 µM | 4.63 |  |
| COc1ccc(CNC(=O)NC2CC3(C2)CC(C(=O)N[C@H]2C[C@H](c4ccccc4)C2)C3)cc1 (stereo partly drawn) [Compound 63, 6-(3-(4-methoxybenzyl)ureido)-N-((1r,3r)-3-phenylcyclobutyl)spiro[3.3]heptane-2-carboxamide] | 4.4 µM | 5.36 |  |
| COc1ccc(CNC(=O)NC2CC3(C2)CC(C(=O)NCC(C)(C)c2ccccc2OC)C3)cc1 (stereo not drawn) [Compound 64, 6-(3-(4-methoxybenzyl)ureido)-N-(2-(2-methoxyphenyl)-2-methylpropyl)spiro[3.3]heptane-2-carboxamide] | 1.4 µM | 4.30 |  |
| COc1ccc(CNC(=O)NC2CC3(C2)CC(C(=O)NCC(C)(C)c2ccccn2)C3)cc1 (stereo not drawn) [Compound 65, 6-(3-(4-methoxybenzyl)ureido)-N-(2-methyl-2-(pyridin-2-yl)propyl)spiro[3.3]heptane-2-carboxamide] | 2.6 µM | 4.30 |  |
